According to patent publication US20220073554A1, “LINCOSAMIDE ANTIBIOTICS AND USES THEREOF” (President and Fellows of Harvard College, priority 2017, published 2022):
Values after ≈ are worked out from the molar mass of the structure shown. Read-outs that look alike come from different tables or passages of the source.

What was measured:
Format in all cases: cell-based
[1] = tested on: S. aureus MP-549 msr(a) USA 300; assay: MIC against S. aureus MP-549 msr(a) USA 300; details: Staphylococcus aureus, USA300, S. aureus MP-549 msr(a) USA 300
S. aureus MMX 3035 cErmA = assay: MIC against S. aureus MMX 3035 cErmA; details: Staphylococcus aureus, MMX3035CERMA; S. aureus MMX 3035 cErmA; read-out: MIC
S. pneumoniae ATCC 49619 = assay: MIC against S. pneumoniae ATCC 49619; details: Streptococcus pneumoniae, ATCC49619
[2] = tested on: S. pneumoniae MMX 3028 cErmB; assay: MIC against S. pneumoniae MMX 3028 cErmB; details: Streptococcus pneumoniae, MMX3028CERMB; S. pneumoniae MMX 3028 cErmB; read-out: MIC
[3] = tested on: S. pneumoniae MMX 3031 cMefA; assay: MIC against S. pneumoniae MMX 3031 cMefA; details: Streptococcus pneumoniae, MMX3031CMEFA
S. pyogenes ATCC 19615 = assay: MIC against S. pyogenes ATCC 19615; details: Streptococcus pyogenes, ATCC19615; S. pyogenes ATCC 19615; read-out: MIC
E. faecalis ATCC 29212 = assay: MIC against E. faecalis ATCC 29212; details: Enterococcus faecalis
K. pneumoniae ATCC 10031 = assay: MIC against K. pneumoniae ATCC 10031; details: Klebsiella pneumoniae, ATCC10031
E. coli ATCC 15922 = assay: MIC against E. coli ATCC 15922; details: Escherichia coli, ATCC15922; E. coli ATCC 15922; read-out: MIC
E. coli MP-9 ΔTolC = assay: MIC against E. coli MP-9 ΔTolC; details: Escherichia coli
S. aureus BAA 977 iErmA = assay: MIC against S. aureus BAA 977 iErmA; details: Staphylococcus aureus, BAA977
[4] = tested on: S. pyogenes MMX 946 Macrolide-Resistant; assay: MIC against S. pyogenes MMX 946 Macrolide-Resistant; details: Streptococcus pyogenes, read-out: MIC
[5] = tested on: E. faecalis MMX 847 Macrolide-Resistant; assay: MIC against E. faecalis MMX 847 Macrolide-Resistant; details: Enterococcus faecalis, read-out: MIC
[6] = tested on: E. coli MP-74 LptD mutant; assay: MIC against E. coli MP-74 LptD mutant; details: Escherichia coli
H. influenzae ATCC 49247 = assay: MIC against H. influenzae ATCC 49247; details: Haemophilus influenzae, ATCC49247
S. aureus ATCC 29213 = assay: MIC against S. aureus ATCC 29213; details: Staphylococcus aureus
E. coli ATCC 25922 = assay: MIC against E. coli ATCC 25922; details: Escherichia coli, ATCC25922
C. difficile BAA 1805 = assay: MIC against C. difficile BAA 1805; details: Clostridioides difficile, BAA1805
[7] = tested on: S. aureus MP-513 clinical cErm; assay: MIC against S. aureus MP-513 clinical cErm; details: Staphylococcus aureus
P. aeruginosa ATCC 27853 = assay: MIC against P. aeruginosa ATCC 27853; details: Pseudomonas aeruginosa, ATCC27853
[8] = S. pneumoniae ATCC 49619, read-out: MIC
[9] = K. pneumoniae ATCC 10031, read-out: MIC
[10] = H. influenzae ATCC 49247, read-out: MIC
[11] = ATCC29213, S. aureus ATCC 29213, read-out: MIC

SMILES	MIC [1] [µg/mL]	MIC (S. aureus MMX 3035 cErmA) [µg/mL]	MIC (S. pneumoniae ATCC 49619; [8]) [µg/mL]	MIC [3] [µg/mL]	MIC (S. pyogenes ATCC 19615) [µg/mL]	MIC (E. faecalis ATCC 29212; ATCC29212, read-out: MIC) [µg/mL]	MIC (E. coli MP-9 ΔTolC) [µg/mL]	MIC (S. aureus BAA 977 iErmA) [µg/mL]	MIC [6] [µg/mL]	MIC (S. aureus ATCC 29213; [11]) [µg/mL]	MIC (K. pneumoniae ATCC 10031) [µg/mL]	MIC (E. coli ATCC 25922) [µg/mL]	also measured
CSC1O[C@H]([C@H](NC(=O)[C@H]2NC[C@@H]3C[C@@H](c4cccc(F)c4)CCO[C@H]32)[C@H](C)Cl)C(O)[C@@H](O)[C@H]1O (stereo partly shown) [FSA-511077]	0.23 (≈ 0.431 µM)	> 64	≤ 0.06	≤ 0.06	≤ 0.06	0.5 (≈ 0.938 µM)	4 (≈ 7.5 µM)	–	–	–	–	–	MIC [2]: 8 µg/mL (≈ 15 µM); MIC (K. pneumoniae ATCC 10031; [9]): 8 µg/mL (≈ 15 µM); MIC (E. coli ATCC 15922): > 64 µg/mL
CSC1O[C@H]([C@H](NC(=O)[C@H]2NC[C@@H]3C[C@@H](c4ccc(C#N)cc4)CCO[C@H]32)[C@H](C)Cl)C(O)[C@@H](O)[C@H]1O (stereo partly shown) [FSA-512081a]	–	–	–	≤ 0.06	–	–	–	1 (≈ 1.85 µM)	–	–	–	–	–
CSC1O[C@H]([C@H](NC(=O)[C@H]2NC[C@@H]3C[C@@H](CCc4cccc(F)c4)CCO[C@H]32)[C@H](C)Cl)C(O)[C@@H](O)[C@H]1O (stereo partly shown) [FSA-510022]	–	2 (≈ 3.56 µM)	≤ 0.06	≤ 0.06	≤ 0.06	–	4 (≈ 7.13 µM)	–	4 (≈ 7.13 µM)	–	–	–	MIC [2]: 4 µg/mL (≈ 7.13 µM); MIC ([4]; S. pyogenes MMX 946 MacRes): 0.5 µg/mL (≈ 0.891 µM); MIC ([5]; E. faecalis MMX 847 MacRes): 2 µg/mL (≈ 3.56 µM); MIC (K. pneumoniae ATCC 10031; [9]): 2 µg/mL (≈ 3.56 µM); MIC (H. influenzae ATCC 49247; [10]): 1 µg/mL (≈ 1.78 µM)
CSC1O[C@H]([C@H](NC(=O)[C@H]2NC[C@@H]3C=C(c4ccccc4F)CCO[C@@H]23)[C@H](C)Cl)C(O)[C@@H](O)[C@H]1O (stereo partly shown) [FSA-511073]	1 (≈ 1.88 µM)	> 64	–	12 (≈ 22.6 µM)	–	4 (≈ 7.53 µM)	–	1 (≈ 1.88 µM)	–	1 (≈ 1.88 µM)	–	–	MIC ([4]; S. pyogenes MMX 946 Macrolide-Resistant (MacRes)): > 64 µg/mL; MIC ([5]; E. faecalis MMX 847 Macrolide-Resistant (MacRes)): > 64 µg/mL; MIC (H. influenzae ATCC 49247; [10]): > 64 µg/mL; MIC (E. coli ATCC 25922; E. coli ATCC 25922, read-out: MIC): > 64 µg/mL
CNC1CCO[C@@H]2[C@H](CN[C@@H]2C(=O)N[C@H]([C@H](C)Cl)[C@H]2OC(SC)[C@H](O)[C@H](O)C2O)C1 (stereo partly shown) [FSA-510065]	> 64	–	–	–	–	–	> 64	> 64	> 64	–	> 64	> 64	MIC (S. aureus ATCC 29213; ATCC29213): > 64 µg/mL; MIC (S. pneumoniae ATCC 49619): > 64 µg/mL; MIC (E. faecalis ATCC 29212; ATCC29212): > 64 µg/mL; MIC (C. difficile BAA 1805): > 64 µg/mL; MIC (H. influenzae ATCC 49247): > 64 µg/mL
CSC1O[C@H]([C@H](NC(=O)[C@H]2NC[C@@H]3CN(Cc4ccc(N)nc4)CCO[C@H]32)[C@H](C)Cl)C(O)[C@@H](O)[C@H]1O (stereo partly shown) [FSA-504050]	–	–	–	–	–	–	> 64	–	–	–	> 64	> 64	MIC [7]: > 64 µg/mL; MIC (P. aeruginosa ATCC 27853): > 64 µg/mL
CSC1O[C@H]([C@H](NC(=O)[C@H]2NC[C@@H]3C[C@H](c4ccc(C#N)cc4)CCO[C@H]32)[C@H](C)Cl)C(O)[C@@H](O)[C@H]1O (stereo partly shown) [FSA-512081b]	1 (≈ 1.85 µM)	–	≤ 0.06	–	≤ 0.06	1 (≈ 1.85 µM)	8 (≈ 14.8 µM)	1 (≈ 1.85 µM)	37 (≈ 68.5 µM)	–	–	–	–
CSC1O[C@H]([C@H](NC(=O)[C@H]2NC[C@@H]3CC(c4ccc(-c5ccccc5)cc4)=CCO[C@H]32)[C@H](C)Cl)C(O)[C@@H](O)[C@H]1O (stereo partly shown) [FSA-510001]	–	–	4 (≈ 6.79 µM)	–	2 (≈ 3.39 µM)	–	> 64	2 (≈ 3.39 µM)	8 (≈ 13.6 µM)	2 (≈ 3.39 µM)	> 64	> 64	MIC (E. faecalis ATCC 29212; ATCC29212): 8 µg/mL (≈ 13.6 µM)
CSC1O[C@H]([C@H](NC(=O)[C@H]2NC[C@@H]3CNCCO[C@H]32)[C@H](C)Cl)C(O)[C@@H](O)[C@H]1O (stereo partly shown) [FSA-503001]	> 64	–	–	–	–	–	> 64	> 64	–	–	> 64	> 64	MIC [7]: > 64 µg/mL; MIC (P. aeruginosa ATCC 27853): > 64 µg/mL
COc1ccc(C2CCO[C@@H]3[C@H](CN[C@@H]3C(=O)N[C@H]([C@H](C)Cl)[C@H]3OC(SC)[C@H](O)[C@H](O)C3O)C2)cc1 (stereo partly shown) [FSA-511045]	–	–	≤ 0.06	–	≤ 0.06	1 (≈ 1.83 µM)	8 (≈ 14.7 µM)	–	37 (≈ 67.9 µM)	0.3 (≈ 0.55 µM)	–	–	MIC (E. coli ATCC 15922): > 64 µg/mL
